One experiment deals with T1, RXRγ (UniProt P28705).
T1 sequence (P28705 1-463): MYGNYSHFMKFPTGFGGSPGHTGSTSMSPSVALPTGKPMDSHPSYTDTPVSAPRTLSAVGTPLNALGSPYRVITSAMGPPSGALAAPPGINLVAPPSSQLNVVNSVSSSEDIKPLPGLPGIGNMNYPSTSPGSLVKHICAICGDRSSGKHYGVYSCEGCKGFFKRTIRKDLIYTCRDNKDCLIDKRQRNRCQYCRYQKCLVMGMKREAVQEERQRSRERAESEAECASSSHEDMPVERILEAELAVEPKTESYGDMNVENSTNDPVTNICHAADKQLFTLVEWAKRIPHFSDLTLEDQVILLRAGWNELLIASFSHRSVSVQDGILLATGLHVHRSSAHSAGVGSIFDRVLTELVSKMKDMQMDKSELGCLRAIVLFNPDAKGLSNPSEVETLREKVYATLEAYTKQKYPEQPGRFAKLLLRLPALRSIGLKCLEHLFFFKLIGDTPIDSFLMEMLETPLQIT
Briefly: ligand binding assay, RXRγ. Details: other: RXRγ; last entry of cell. The settings on record: last entry of cell, read-out: RXR Bind Ki (nM) γ. The source says:
(§1) A holoreceptor transactivation assay and a ligand binding assay which measure the antagonist/agonist like activity of the compounds of the invention, or their ability to bind to the several retinoid receptor subtypes, respectively, are described in published PCT Application No. WO WO93/11755 (particularly on pages 30-33 and 37-41) published on Jun. 24, 1993, the specification of which is also incorporated herein by reference. A detailed experimental procedure for holoreceptor transactivations has been described by Heyman et al. Cell 68, 397-406, (1992); Allegretto et al. J. Biol. Chem. 268, 26625-26633, and Mangelsdorf et al. The Retinoids: Biology, Chemistry and Medicine, pp 319-349, Raven Press Ltd., New York, which are expressly incorporated herein by reference. The results obtained in this assay are expressed in EC50 numbers, as they are also in the chimeric receptor transactivation assay. The results of ligand binding assay are expressed in Kd numbers. (See Cheng et al. Biochemical Pharmacology Vol. 22 pp 3099-3108, expressly incorporated herein by reference.)

A further experiment has as its target T2, RXRα (Homo sapiens, UniProt P19793).
T2 sequence (P19793 1-462): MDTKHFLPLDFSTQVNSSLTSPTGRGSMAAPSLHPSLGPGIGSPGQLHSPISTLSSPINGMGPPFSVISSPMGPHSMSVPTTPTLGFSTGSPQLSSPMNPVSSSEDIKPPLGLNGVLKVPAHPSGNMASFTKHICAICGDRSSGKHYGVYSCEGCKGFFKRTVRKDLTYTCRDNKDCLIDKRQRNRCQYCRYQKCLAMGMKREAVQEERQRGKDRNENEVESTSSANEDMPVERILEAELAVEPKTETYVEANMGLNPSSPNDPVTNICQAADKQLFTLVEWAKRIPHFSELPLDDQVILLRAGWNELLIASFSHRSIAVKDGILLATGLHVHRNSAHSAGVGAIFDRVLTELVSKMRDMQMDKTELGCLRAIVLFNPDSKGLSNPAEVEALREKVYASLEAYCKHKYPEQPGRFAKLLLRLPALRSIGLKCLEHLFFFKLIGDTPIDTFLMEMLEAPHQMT
The experiment in a line: ligand binding assay, RXRα. The settings on record: last entry of cell, read-out: RXR Bind Ki (nM) α.
From the text: as §1

A further experiment addresses T3, RARγ (Homo sapiens, UniProt P13631).
T3 sequence (P13631 1-454): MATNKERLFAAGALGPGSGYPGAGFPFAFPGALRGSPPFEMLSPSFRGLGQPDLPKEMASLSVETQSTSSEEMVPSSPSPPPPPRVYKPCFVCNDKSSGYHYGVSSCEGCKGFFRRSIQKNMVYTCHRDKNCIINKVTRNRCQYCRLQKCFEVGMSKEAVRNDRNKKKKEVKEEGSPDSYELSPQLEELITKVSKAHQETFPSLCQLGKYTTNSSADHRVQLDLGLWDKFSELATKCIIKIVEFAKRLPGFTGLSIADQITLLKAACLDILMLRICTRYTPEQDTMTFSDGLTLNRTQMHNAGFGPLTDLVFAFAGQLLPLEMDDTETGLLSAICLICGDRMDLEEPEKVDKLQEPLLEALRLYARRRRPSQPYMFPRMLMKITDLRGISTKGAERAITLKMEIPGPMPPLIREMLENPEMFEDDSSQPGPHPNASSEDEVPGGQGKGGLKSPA
The experiment in a line: ligand binding assay, RARγ. To be noted: second entry of cell, read-out: RAR Bind. Ki (nM) γ.
From the text: as §1

For a further experiment, the target named is T4, RARα (Homo sapiens, UniProt P10276).
T4 sequence (P10276 1-462): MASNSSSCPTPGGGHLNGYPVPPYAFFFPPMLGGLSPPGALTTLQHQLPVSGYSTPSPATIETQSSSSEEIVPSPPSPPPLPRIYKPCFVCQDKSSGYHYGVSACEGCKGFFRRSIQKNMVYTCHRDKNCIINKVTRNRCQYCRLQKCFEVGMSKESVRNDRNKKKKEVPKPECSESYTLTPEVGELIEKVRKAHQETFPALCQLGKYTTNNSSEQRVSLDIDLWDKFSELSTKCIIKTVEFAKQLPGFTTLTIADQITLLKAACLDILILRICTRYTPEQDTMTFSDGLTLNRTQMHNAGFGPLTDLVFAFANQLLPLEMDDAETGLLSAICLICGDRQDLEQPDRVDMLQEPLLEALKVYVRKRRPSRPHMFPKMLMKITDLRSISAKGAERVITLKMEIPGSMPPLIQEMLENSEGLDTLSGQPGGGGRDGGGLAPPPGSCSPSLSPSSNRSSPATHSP
Briefly: ligand binding assay, RARα. To be noted: second entry of cell, read-out: RAR Bind. Ki (nM) α.
From the text: as §1

Data on 15 molecules can be found in patent publication US6720423B2, “Dihydrobenzofuran and dihydrobenzothiophene 2,4-pentadienoic acid derivatives having selective activity for retinoid X (RXR) receptors” (Allergan, Inc., priority 2002, dated 2004).

For the molecule `CC(/C=C/[C@@H]1C[C@]1(C)c1cc(-c2ccc(C(C)(C)C)cc2)c2c(c1)C(C)(C)CO2)=C\C(=O)O` [Compound 30, 5-{(1S, 2S)-2-[7-(4-tert-Butyl-phenyl)-3,3-dimethyl-2,3-dihydro-benzofuran-5-]-2-methyl-cyclopropyl}-3-methyl-pent-2E,4E-dienoic Acid], the inhibition constant Ki (usually the equilibrium dissociation constant of an inhibitor or competing ligand from its target) is 69.9 nM at RXRγ, 129 nM on RXRα, > 10000 nM on RARγ and > 10000 nM at RARα.
For the molecule `COc1ccc(-c2cc([C@@]3(C)C[C@H]3/C=C/C(C)=C/C(=O)O)cc3c2OCC3(C)C)cc1` [Compound 32, (E)-3-((E)-2-{(1S,2S)-2-[7-(4-Methoxy-phenyl)-3,3-dimethyl-2,3-dihydro-benzofuran-5-yl]-2-methyl-cyclopropyl}-vinyl)-but-2-enoic acid], the inhibition constant Ki is 227 nM at RXRγ, 66 nM at RXRα, > 10000 nM on RARγ and 29000 nM on RARα.
For `CC(/C=C/[C@@H]1C[C@]1(C)c1cc(CC(C)(C)C)c2c(c1)C(C)(C)CO2)=C\C(=O)O` [Compound 12, 5-{(1S,2S) 2-[7-(2,2-Dimethyl-propyl)-3,3-dimethyl-2,3-dihydro-benzofuran-5-yl]-2-methyl-cyclopropyl}-3-methyl-penta-2E,4E-dienoic Acid], in that order: 0.7 nM, 0.2 nM, 8910 nM and 18000 nM.
For `CC(/C=C/[C@@H]1C[C@]1(C)c1ccc2c(c1)C(C)(C)CO2)=C\C(=O)O` [Compound 2, (6S,7S)-7-[5-(3,3-Dimethyl-2,3-dihydro-benzofuranyl)]-6.7-methano-3-methyl-octa-2E,4E-dienoic Acid], in that order: 35 nM, 7.8 nM, > 10000 nM and > 10000 nM.
On the same counts, the results for `CC(/C=C/[C@@H]1C[C@]1(C)c1cc(Br)c2c(c1)C(C)(C)CO2)=C\C(=O)O` [Compound 20, (6S,7S)-7-[5-(7-Bromo-3,3-dimethyl-2,3-dihydro-benzofuranyl)]-6,7-methano-3-methyl-octa-2E,4E-dienoic Acid] are 40 nM, 7.1 nM, > 10000 nM and > 10000 nM.
`CCCCCCCc1ccccc1-c1cc([C@@]2(C)C[C@H]2/C=C/C(C)=C/C(=O)O)cc2c1OCC2(C)C` [Compound 28]: the Ki at RXRα came to 35 nM; on RARγ, 9540 nM; on RARα it was 2620 nM.
For `CC(/C=C/[C@@H]1C[C@]1(C)c1cc(C(C)C)c2c(c1)C(C)(C)CO2)=C\C(=O)O` [Compound 8, (6S,7S)-7-[5-(3,3-Dimethyl-7-iso-propyl-2,3-dihydro-benzofuranyl)]-6,7-methano-3-methyl-octa-2E,4E-dienoic Acid], the Ki at RXRγ came out at 8.6 nM; on RXRα, 1.7 nM; at RARγ, 7510 nM; at RARα, 42000 nM.
On the same counts, the results for `CCc1cc([C@@]2(C)C[C@H]2/C=C/C(C)=C/C(=O)O)cc2c1OCC2(C)C` [Compound 6] are 3.2 nM, 0.72 nM, 13000 nM and > 30000 nM.
With `CC(/C=C/[C@@H]1C[C@]1(C)c1cc(C)c2c(c1)C(C)(C)CO2)=C\C(=O)O` [Compound 4, (6S,7S)-7-[5-(3,3,7-Trimethyl-2,3-dihydro-benzofuranyl)]-6,7-methano-3-methyl-octa-2E,4E-dienoic acid], the inhibition constant Ki on RXRγ was 9.9 nM; at RXRα it was 6.3 nM; on RARγ, > 10000 nM; at RARα it was > 10000 nM.
Regarding `CC(/C=C/[C@@H]1C[C@]1(C)c1cc(Cc2ccccc2)c2c(c1)C(C)(C)CO2)=C\C(=O)O` [Compound 14, (6S,7S)-7-[5-(7-Benzyl-3,3-dimethyl-2,3-dihydro-benzofuranyl)]-6,7-methano-3-methyl-octa-2E,4E-dienoic Acid], the Ki on RXRγ came to 9.2 nM; at RXRα it was 0.8 nM; on RARγ, 6650 nM; at RARα, 8720 nM.
On the same counts, the results for `CCCCCCc1cc([C@@]2(C)C[C@H]2/C=C/C(C)=C/C(=O)O)cc2c1OCC2(C)C` [Compound 18, (6S,7S)-7-[5-(3,3-Dimethyl-7-hexyl-2,3-dihydro-benzofuranyl)]-6,7-methano-3-methyl-octa-2E,4E-dienoic acid] are 2 nM, 1.9 nM, 9260 nM and 12000 nM.
For `CC(/C=C/[C@@H]1C[C@]1(C)c1cc(C(C)(C)C)c2c(c1)C(C)(C)CO2)=C\C(=O)O` [Compound 10, (6S,7S)-7-[5-(3,3-Dimethyl-7-t-butyl-2,3-dihydro-benzofuranyl)]-6,7-methano-3-methyl-octa-2E,4E-dienoic acid], in that order: 1.3 nM, 0.8 nM, 13000 nM and 11000 nM.
With `CC(/C=C/[C@@H]1C[C@]1(C)c1cc(-c2ccc(F)cc2)c2c(c1)C(C)(C)CO2)=C\C(=O)O` [Compound 34, (E)-3-((E)-2-{(1S,2S)-2-[7-(4-Fluoro-phenyl)-3,3-dimethyl-2,3-dihydro-benzofuran-5-yl]-2-methyl-cyclopropyl}-vinyl)-but-2-enoic acid], the Ki stood at 1.5 nM on RXRγ, 0.5 nM on RXRα, 25000 nM on RARγ and 23000 nM on RARα.
On the same counts, the results for `CC(/C=C/[C@@H]1C[C@]1(C)c1cc(CC2CCCCC2)c2c(c1)C(C)(C)CO2)=C\C(=O)O` [Compound 16, (6S,7S)-7-[5-(7-Cyclohexylmethyl-3,3-dimethyl-2,3-dihydro-benzofuranyl)]-6,7-methano-3-methyl-octa-2E,4E-dienoic Acid] are 1.9 nM, 0.3 nM, 12000 nM and 8800 nM.
Regarding `CCCCC(=O)CCc1cc([C@@]2(C)C[C@H]2/C=C/C(C)=C/C(=O)O)cc2c1OCC2(C)C` [Compound 40], the Ki at RXRγ is 70 nM; at RXRα, 41 nM; at RARγ it was > 10000 nM; on RARα it was 11000 nM.
